Measurements reported in patent US6737383B1, “Herbicidal oxadiazolidines” (priority 1999, dated 2004).

Columns and labels:
giant foxtail = assay: Test B pre/postemergence giant foxtail; type: in vivo, Setaria faberii
Outline: (§1)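 Test chemicals in a non-phytotoxic solvent mixture with surfactant were sprayed preemergence onto planted seeds and postemergence onto plants 2 to 18 cm tall (1- to 4-leaf stage). After twelve to sixteen days in a greenhouse, injury was visually rated against untreated controls from 0 (no effect) to 10 (complete control).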

velvetleaf = assay: Test B pre/postemergence velvetleaf; type: in vivo, Abutilon theophrasti
Outline: as §1

rape = assay: Test B pre/postemergence rape; type: in vivo, Brassica napus
Outline: as §1

morningglory = assay: Test B pre/postemergence morningglory; type: in vivo, Ipomoea hederacea
Outline: as §1

pigweed = assay: Test B pre/postemergence pigweed; type: in vivo, Amaranthus retroflexus
Outline: as §1

wheat = assay: Test B pre/postemergence wheat; type: in vivo, Triticum aestivum
Outline: as §1

bedstraw = assay: Test B pre/postemergence bedstraw; type: in vivo, Galium aparine
Outline: as §1

wild oat = assay: Test B pre/postemergence wild oat; type: in vivo, Avena fatua
Outline: as §1

purple nutsedge = assay: Test B pre/postemergence purple nutsedge; type: in vivo, Cyperus rotundus
Outline: as §1

cocklebur = assay: Test B pre/postemergence cocklebur; type: in vivo, Xanthium strumarium
Outline: as §1

blackgrass = assay: Test B pre/postemergence blackgrass; type: in vivo, Alopecurus myosuroides
Outline: as §1

surinam grass = assay: Test B pre/postemergence surinam grass; type: in vivo, Brachiaria decumbens
Outline: as §1

sugar beet = assay: Test B pre/postemergence sugar beet; type: in vivo, Beta vulgaris
Outline: as §1

soybean = assay: Test B pre/postemergence soybean; type: in vivo, Glycine max
Outline: as §1

crabgrass = assay: Test B pre/postemergence crabgrass; type: in vivo, Digitaria sanguinalis
Outline: as §1

corn = assay: Test B pre/postemergence corn; type: in vivo, Zea mays
Outline: as §1

[1] = Postemergence, Rate 62 g/ha, scale 0 to 10, 0 is no effect, 10 is complete control
[2] = Postemergence, Rate 125 g/ha, scale of 0 to 10 where 0 is no effect and 10 is complete control
[3] = Postemergence, Rate 250 g/ha, scale of 0 to 10, 0 is no effect, 10 is complete control
[4] = Postemergence, Rate 500 g/ha, scale of 0 to 10 where 0 is no effect and 10 is complete control
[5] = Preemergence, Rate 62 g/ha, scale of 0 to 10 where 0 is no effect and 10 is complete control
[6] = Preemergence, Rate 125 g/ha, scale of 0 to 10 where 0 is no effect and 10 is complete control
[7] = Preemergence, Rate 250 g/ha, scale 0 to 10 (0 no effect, 10 complete control)
[8] = Preemergence, Rate 500 g/ha, scale of 0 to 10 where 0 is no effect and 10 is complete control

## CCCCn1c(=O)on(C(=O)N(c2ccc(F)cc2F)C(C)C)c1=O [Compound 635]
Giant foxtail; [1]
  Plant response rating, Giant foxtail: 5
Giant foxtail; [2]
  Plant response rating, Giant foxtail: 8
Giant foxtail; [3]
  Giant foxtail plant response rating: 8
Giant foxtail; [4]
  Plant response rating, Giant foxtail: 9
Giant foxtail; [5]
  Giant foxtail plant response rating: 9
Giant foxtail; [6]
  Giant foxtail plant response rating: 9
Giant foxtail; [7]
  Plant response rating, Giant foxtail: 10
Giant foxtail; [8]
  Plant response rating, Giant foxtail: 10
velvetleaf; [1]
  Plant response rating, Velvetleaf: 0
velvetleaf; [2]
  Plant response rating, Velvetleaf: 0
velvetleaf; [3]
  Velvetleaf plant response rating: 2
velvetleaf; [5]
  Velvetleaf plant response rating: 0
velvetleaf; [7]
  Plant response rating, Velvetleaf: 3
velvetleaf; [8]
  Plant response rating, Velvetleaf: 7
rape; [1]
  Plant response rating, Rape: 2
rape; [2]
  Plant response rating, Rape: 5
rape; [3]
  Rape plant response rating: 7
rape; [4]
  Plant response rating, Rape: 9
rape; [5]
  Rape plant response rating: 6
rape; [6]
  Rape plant response rating: 6
rape; [7]
  Plant response rating, Rape: 7
rape; [8]
  Plant response rating, Rape: 9
morningglory; [1]
  Plant response rating, Morningglory: 1
morningglory; [2]
  Plant response rating, Morningglory: 4
morningglory; [3]
  Morningglory plant response rating: 4
morningglory; [4]
  Plant response rating, Morningglory: 7
morningglory; [5]
  Morningglory plant response rating: 0
morningglory; [6]
  Morningglory plant response rating: 0
morningglory; [7]
  Plant response rating, Morningglory: 0
morningglory; [8]
  Plant response rating, Morningglory: 6
pigweed; [1]
  Plant response rating, Redroot pigweed: 0
pigweed; [2]
  Plant response rating, Redroot pigweed: 0
pigweed; [3]
  Redroot pigweed plant response rating: 3
pigweed; [5]
  Redroot pigweed plant response rating: 10
pigweed; [6]
  Redroot pigweed plant response rating: 10
pigweed; [7]
  Plant response rating, Redroot pigweed: 10
pigweed; [8]
  Plant response rating, Redroot pigweed: 10
wheat; [1]
  Plant response rating, Wheat: 0
wheat; [2]
  Plant response rating, Wheat: 0
wheat; [3]
  Wheat plant response rating: 2
wheat; [5]
  Wheat plant response rating: 0
wheat; [6]
  Wheat plant response rating: 0
wheat; [7]
  Plant response rating, Wheat: 3
wheat; [8]
  Plant response rating, Wheat: 4
bedstraw; [1]
  Plant response rating, Bedstraw: 5
bedstraw; [2]
  Plant response rating, Bedstraw: 7
bedstraw; [3]
  Bedstraw plant response rating: 9
bedstraw; [5]
  Bedstraw plant response rating: 9
bedstraw; [6]
  Bedstraw plant response rating: 8
bedstraw; [7]
  Plant response rating, Bedstraw: 7
bedstraw; [8]
  Plant response rating, Bedstraw: 9
Wild oat; [1]
  Plant response rating, Wild oats: 0
Wild oat; [2]
  Plant response rating, Wild oats: 0
Wild oat; [3]
  Wild oats plant response rating: 5
Wild oat; [5]
  Wild oats plant response rating: 2
Wild oat; [6]
  Wild oats plant response rating: 6
Wild oat; [7]
  Plant response rating, Wild oats: 9
Wild oat; [8]
  Plant response rating, Wild oats: 9
Purple nutsedge; [1]
  Plant response rating, Nutsedge: 0
Purple nutsedge; [2]
  Plant response rating, Nutsedge: 0
Purple nutsedge; [5]
  Nutsedge plant response rating: 0
Purple nutsedge; [6]
  Nutsedge plant response rating: 0
Purple nutsedge; [7]
  Plant response rating, Nutsedge: 3
Purple nutsedge; [8]
  Plant response rating, Nutsedge: 4
cocklebur; [1]
  Plant response rating, Cocklebur: 2
cocklebur; [2]
  Plant response rating, Cocklebur: 2
cocklebur; [3]
  Cocklebur plant response rating: 3
cocklebur; [4]
  Plant response rating, Cocklebur: 3
cocklebur; [5]
  Cocklebur plant response rating: 0
cocklebur; [6]
  Cocklebur plant response rating: 0
cocklebur; [7]
  Plant response rating, Cocklebur: 0
cocklebur; [8]
  Plant response rating, Cocklebur: 0
blackgrass; [1]
  Plant response rating, Blackgrass: 2
blackgrass; [2]
  Plant response rating, Blackgrass: 3
blackgrass; [3]
  Blackgrass plant response rating: 7
blackgrass; [5]
  Blackgrass plant response rating: 9
blackgrass; [7]
  Plant response rating, Blackgrass: 9
blackgrass; [8]
  Plant response rating, Blackgrass: 8
Surinam grass; [1]
  Plant response rating, B. signalgrass: 0
Surinam grass; [2]
  Plant response rating, B. signalgrass: 0
Surinam grass; [3]
  B. signalgrass plant response rating: 2
Surinam grass; [4]
  Plant response rating, B. signalgrass: 8
Surinam grass; [5]
  B. signalgrass plant response rating: 4
Surinam grass; [6]
  B. signalgrass plant response rating: 8
Surinam grass; [7]
  Plant response rating, B. signalgrass: 9
Surinam grass; [8]
  Plant response rating, B. signalgrass: 9
Sugar beet; [1]
  Plant response rating, Sugarbeets: 3
Sugar beet; [2]
  Plant response rating, Sugarbeets: 3
Sugar beet; [3]
  Sugarbeets plant response rating: 7
Sugar beet; [5]
  Sugarbeets plant response rating: 3
Sugar beet; [6]
  Sugarbeets plant response rating: 5
Sugar beet; [7]
  Plant response rating, Sugarbeets: 8
Sugar beet; [8]
  Plant response rating, Sugarbeets: 9
soybean; [1]
  Plant response rating, Soybean: 3
soybean; [2]
  Plant response rating, Soybean: 4
soybean; [3]
  Soybean plant response rating: 4
soybean; [5]
  Soybean plant response rating: 0
soybean; [6]
  Soybean plant response rating: 0
soybean; [7]
  Plant response rating, Soybean: 0
soybean; [8]
  Plant response rating, Soybean: 2
crabgrass; [1]
  Plant response rating, Crabgrass: 4
crabgrass; [2]
  Plant response rating, Crabgrass: 9
crabgrass; [3]
  Crabgrass plant response rating: 8
crabgrass; [4]
  Plant response rating, Crabgrass: 9
crabgrass; [5]
  Crabgrass plant response rating: 9
crabgrass; [6]
  Crabgrass plant response rating: 9
crabgrass; [7]
  Plant response rating, Crabgrass: 9
crabgrass; [8]
  Plant response rating, Crabgrass: 9
corn; [1]
  Plant response rating, Corn: 0
corn; [2]
  Plant response rating, Corn: 0
corn; [3]
  Corn plant response rating: 0
corn; [4]
  Plant response rating, Corn: 2
corn; [5]
  Corn plant response rating: 0
corn; [7]
  Plant response rating, Corn: 2
corn; [8]
  Plant response rating, Corn: 8
